Results taken from ChEMBL document CHEMBL2074445, “Effect of organic isothiocyanates on the P-glycoprotein- and MRP1-mediated transport of daunomycin and vinblastine” (Pharm Res, 2002).

Key:
Type in all cases: functional, cell-based
[1] = biological target: T1, Multidrug resistance-associated protein 1 (Homo sapiens, UniProt P33527); assay: TP_TRANSPORTER: increase in Daunomycin intracellular accumulation (Daunomycin: 0.05 uM, NITC: 100 uM) in PANC-1 cells; settings: panc-1, 100 µM
[2] = biological target: T2, ATP-dependent translocase ABCB1 (Homo sapiens, UniProt P08183); assay: TP_TRANSPORTER: increase in Daunomycin intracellular accumulation (Daunomycin: 0.05 uM, NITC: 100 uM) in MCF-7 ADR cells; settings: nci/adr-res
T2 sequence (P08183 whole entry): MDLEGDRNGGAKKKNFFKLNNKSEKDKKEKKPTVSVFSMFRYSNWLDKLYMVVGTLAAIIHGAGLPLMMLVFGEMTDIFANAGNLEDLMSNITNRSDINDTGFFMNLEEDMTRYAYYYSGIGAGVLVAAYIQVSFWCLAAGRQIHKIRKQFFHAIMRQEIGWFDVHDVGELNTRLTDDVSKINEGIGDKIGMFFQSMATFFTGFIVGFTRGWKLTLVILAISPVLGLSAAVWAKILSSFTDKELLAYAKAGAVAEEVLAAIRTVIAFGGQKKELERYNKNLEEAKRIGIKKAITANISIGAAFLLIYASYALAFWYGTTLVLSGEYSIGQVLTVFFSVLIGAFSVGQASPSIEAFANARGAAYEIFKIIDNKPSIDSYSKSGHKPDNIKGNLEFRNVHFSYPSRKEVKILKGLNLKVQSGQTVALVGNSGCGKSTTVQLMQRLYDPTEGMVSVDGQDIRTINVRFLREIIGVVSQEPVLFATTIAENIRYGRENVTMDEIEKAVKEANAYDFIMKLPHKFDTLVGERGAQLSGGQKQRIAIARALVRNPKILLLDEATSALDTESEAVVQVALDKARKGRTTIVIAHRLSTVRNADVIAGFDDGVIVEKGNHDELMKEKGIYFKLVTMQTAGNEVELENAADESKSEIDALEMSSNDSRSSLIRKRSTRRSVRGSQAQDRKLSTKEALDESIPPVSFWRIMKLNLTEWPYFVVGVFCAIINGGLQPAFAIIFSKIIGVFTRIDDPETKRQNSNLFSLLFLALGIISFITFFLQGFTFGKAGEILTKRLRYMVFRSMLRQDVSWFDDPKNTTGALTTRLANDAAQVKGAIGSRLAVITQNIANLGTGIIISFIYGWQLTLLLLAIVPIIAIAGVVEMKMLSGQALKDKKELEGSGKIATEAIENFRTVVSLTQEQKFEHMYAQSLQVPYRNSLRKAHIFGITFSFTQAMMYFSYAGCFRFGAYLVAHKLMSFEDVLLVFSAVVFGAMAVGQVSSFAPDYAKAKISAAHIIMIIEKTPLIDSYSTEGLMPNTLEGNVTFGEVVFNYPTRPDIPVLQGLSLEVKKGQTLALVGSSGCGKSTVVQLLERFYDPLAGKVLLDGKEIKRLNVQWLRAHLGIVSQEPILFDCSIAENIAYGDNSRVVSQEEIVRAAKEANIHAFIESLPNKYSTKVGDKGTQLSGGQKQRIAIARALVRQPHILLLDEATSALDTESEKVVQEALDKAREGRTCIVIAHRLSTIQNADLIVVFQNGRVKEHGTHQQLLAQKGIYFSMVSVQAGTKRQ

[3] = biological target: T2, ATP-dependent translocase ABCB1; assay: TP_TRANSPORTER: increase in Daunomycin intracellular accumulation (Daunomycin: 0.05 uM, Benzylisothiocyanate: 100 uM) in MCF-7/ADR cells; settings: nci/adr-res
[4] = biological target: T1, Multidrug resistance-associated protein 1; assay: TP_TRANSPORTER: increase in Daunomycin intracellular accumulation (Daunomycin: 0.05 uM, Phenylhexyl isothiocyanate: 100 uM) in PANC-1 cells; settings: panc-1, 100 µM
[5] = biological target: T1, Multidrug resistance-associated protein 1; assay: TP_TRANSPORTER: increase in Vinblastine intracellular accumulation (Vinblastine: 0.05 uM, Phenylbutyl isothiocyanate: 100 uM) in PANC-1 cells; settings: panc-1, 100 µM
[6] = biological target: T1, Multidrug resistance-associated protein 1; assay: TP_TRANSPORTER: increase in Vinblastine intracellular accumulation (Vinblastine: 0.05 uM, Phenylhexyl isothiocyanate: 100 uM) in PANC-1 cells; settings: panc-1, 100 µM
[7] = biological target: T2, ATP-dependent translocase ABCB1; assay: TP_TRANSPORTER: increase in Vinblastine intracellular accumulation ([…], Phenylhexyl isothiocyanate: 100 uM) in MCF-7/ADR cells; settings: nci/adr-res

T1 sequence (P33527 whole entry): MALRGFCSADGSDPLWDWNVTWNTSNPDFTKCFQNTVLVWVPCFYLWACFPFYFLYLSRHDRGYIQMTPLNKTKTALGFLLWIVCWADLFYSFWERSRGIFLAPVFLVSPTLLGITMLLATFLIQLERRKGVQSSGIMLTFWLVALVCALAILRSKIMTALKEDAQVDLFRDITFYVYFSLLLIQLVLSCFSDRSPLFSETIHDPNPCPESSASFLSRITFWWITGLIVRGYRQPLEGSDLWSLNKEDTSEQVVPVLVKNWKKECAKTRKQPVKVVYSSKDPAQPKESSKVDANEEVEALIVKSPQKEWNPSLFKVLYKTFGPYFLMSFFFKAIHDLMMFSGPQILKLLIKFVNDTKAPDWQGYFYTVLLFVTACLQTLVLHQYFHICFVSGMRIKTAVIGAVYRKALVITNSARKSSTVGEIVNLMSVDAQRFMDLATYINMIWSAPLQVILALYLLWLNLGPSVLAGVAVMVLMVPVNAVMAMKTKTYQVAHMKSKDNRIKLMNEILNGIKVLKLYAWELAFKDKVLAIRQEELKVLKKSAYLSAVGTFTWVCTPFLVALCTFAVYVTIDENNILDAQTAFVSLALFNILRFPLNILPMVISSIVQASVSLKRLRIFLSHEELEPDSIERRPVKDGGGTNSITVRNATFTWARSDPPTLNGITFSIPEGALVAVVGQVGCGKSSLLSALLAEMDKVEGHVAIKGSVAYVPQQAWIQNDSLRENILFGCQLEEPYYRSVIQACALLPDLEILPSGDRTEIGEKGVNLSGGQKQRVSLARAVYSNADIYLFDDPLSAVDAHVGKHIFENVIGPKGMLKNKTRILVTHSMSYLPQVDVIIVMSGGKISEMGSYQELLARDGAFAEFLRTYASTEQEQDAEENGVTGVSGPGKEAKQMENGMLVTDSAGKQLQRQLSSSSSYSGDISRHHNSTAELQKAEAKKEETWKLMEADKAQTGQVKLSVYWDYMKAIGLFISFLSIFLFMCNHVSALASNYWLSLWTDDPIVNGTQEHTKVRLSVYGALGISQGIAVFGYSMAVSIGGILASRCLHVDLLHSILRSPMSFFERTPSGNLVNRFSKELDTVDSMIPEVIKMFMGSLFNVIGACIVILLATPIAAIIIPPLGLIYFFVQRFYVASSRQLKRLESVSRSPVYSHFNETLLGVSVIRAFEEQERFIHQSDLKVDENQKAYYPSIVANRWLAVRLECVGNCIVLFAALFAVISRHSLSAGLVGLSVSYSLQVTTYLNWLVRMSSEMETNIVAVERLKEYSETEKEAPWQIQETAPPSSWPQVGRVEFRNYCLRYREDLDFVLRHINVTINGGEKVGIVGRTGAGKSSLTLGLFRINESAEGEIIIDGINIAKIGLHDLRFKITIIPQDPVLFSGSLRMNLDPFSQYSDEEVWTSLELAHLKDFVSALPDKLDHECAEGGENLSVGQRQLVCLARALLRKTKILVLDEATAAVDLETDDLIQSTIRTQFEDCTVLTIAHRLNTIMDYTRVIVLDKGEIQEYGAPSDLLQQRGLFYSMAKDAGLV

SMILES: S=C=Nc1cccc2ccccc12 [1-NAPHTHYLISOTHIOCYANATE]
- Activity [1]: 3 fold
- Activity [2]: 4 fold

SMILES: S=C=NCc1ccccc1 [BENZYL ISOTHIOCYANATE]
- Activity [3]: 2.5 fold

SMILES: S=C=NCCc1ccccc1 [PHENETHYLISOTHIOCYANATE]
- Activity [4]: 2 fold

SMILES: S=C=NCCCCc1ccccc1 [PHENYLBUTYL ISOTHIOCYANATE]
- Activity [5]: 2.5 fold

SMILES: S=C=NCCCCCCc1ccccc1 [PHENYLHEXYL ISOTHIOCYANATE]
- Activity [6]: 3 fold
- Activity [7]: 10 fold
